# In patent US20180222922A1, “RADIOFLUORINATED 7-AMINO-5-THIO-THIAZOLO[4,5-D]PYRIMIDINES FOR IMAGING FRACTALKINE RECEPTOR (CX3CR1)” (THE JOHNS HOPKINS UNIVERSITY, priority 2015, published 2018):
# Columns and labels:
# [1] = small animal PET imaging of 2-[18F]FBTTP in healthy mice; assay type: in vivo; settings: 350 μCi via tail vein, PET at 10 min, 30 min, 1 hour and 2 hours post-injection
# Experimental: (R)-2-((2-amino-5-mercaptothiazolo[4,5-d]pyrimidin-7-yl)amino)-4-methylpentan-1-ol was synthesized as previously reported (Karlstrom et al., 2013) and alkylated with 2-[^18F]fluoro-benzylbromide to produce 2-[^18F]FBTTP. 2-[^18F]fluorobenzylbromide was prepared by a one-pot microwave radiofluorination of 2-formyl-N,N,N-trimethylbenzenanilinium triflate followed by sodium borohydride reduction, and bromination with 48% HBr using a procedure analogous to that reported for the preparation of 4-[^18F]fluoro-benzylbromide (Cho et al., 2012; Ravert et al., 2014). 2-[^18F]FBTTP (350 μCi) was injected via the tail vein of healthy mice and imaged using small animal PET. Images were collected at 10, 30, 60, and 120 min post-injection. 2-[^18F]FBTTP was prepared in a decay corrected yield of 10.2% in a specific activity of 1500 Ci/mmol (55,500 GBq/mmol) in a total synthesis time of 110 min.
# To evaluate in vivo pharmacokinetics of 2-[^18F]FBTTP, 350 μCi of the radiotracer was formulated in 200 μL of saline with 10% ethanol and injected into healthy mice via the tail vein. The images were collected at 10 min, 30 min, 1 hour and 2 hours post-injection.
# CX3CR1 = molecular target: T1, CX3CR1 (Homo sapiens, UniProt P49238); settings: binding affinity, reported; cited from earlier work
# T1 sequence (P49238 1-355): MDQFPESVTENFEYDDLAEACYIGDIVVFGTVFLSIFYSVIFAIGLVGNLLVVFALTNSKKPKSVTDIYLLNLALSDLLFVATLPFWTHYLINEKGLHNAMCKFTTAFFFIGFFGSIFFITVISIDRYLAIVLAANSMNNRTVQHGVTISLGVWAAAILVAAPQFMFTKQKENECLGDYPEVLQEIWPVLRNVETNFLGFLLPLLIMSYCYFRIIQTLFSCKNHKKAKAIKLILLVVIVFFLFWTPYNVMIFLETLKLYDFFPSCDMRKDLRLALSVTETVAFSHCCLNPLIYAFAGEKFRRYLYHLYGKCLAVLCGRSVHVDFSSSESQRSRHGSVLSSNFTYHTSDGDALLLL
# CXCR2 = molecular target: T2, CXCR2 (Homo sapiens, UniProt P25025); settings: cited from earlier work; for Ki: binding affinity, reported
# T2 sequence (P25025 1-360): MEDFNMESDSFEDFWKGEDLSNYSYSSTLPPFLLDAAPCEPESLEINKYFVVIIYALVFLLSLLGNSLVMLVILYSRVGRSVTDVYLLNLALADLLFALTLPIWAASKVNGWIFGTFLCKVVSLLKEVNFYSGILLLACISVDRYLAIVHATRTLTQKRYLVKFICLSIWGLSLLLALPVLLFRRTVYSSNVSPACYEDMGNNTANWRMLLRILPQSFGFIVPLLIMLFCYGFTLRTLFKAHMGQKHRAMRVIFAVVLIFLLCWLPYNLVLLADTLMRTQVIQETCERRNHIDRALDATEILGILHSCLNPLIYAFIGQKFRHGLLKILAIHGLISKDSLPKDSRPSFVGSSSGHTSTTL
compound,measurement,setting,value
"CC(C)CC(CO)Nc1nc(SCc2ccccc2[18F])nc2nc(N)sc12 (centres unmarked) [2-[^18F]FBTTP, 2-((2-amino-5-((2-[18F]fluorobenzyl)thio)thiazolo[4,5-d]pyrimidin-7-yl)amino)-4-methylpentan-1-ol]",in vivo pharmacokinetics,[1],favorable in vivo pharmacokinetics
"CC(C)C[C@H](CO)Nc1nc(SC(C)c2ccccc2F)nc2nc(N)sc12 (stereo partly drawn) [Compound 9e, (2R)-2-((2-amino-5-((1-(2-fluorophenyl)ethyl)thio)thiazolo[4,5-d]pyrimidin-7-yl)amino)-4-methylpentan-1-ol]",Ki,CX3CR1,4.7 nM
same,Ki,CXCR2,1400 nM
"CC(C)C[C@H](CO)Nc1nc(SCc2ccccc2F)nc2nc(N)sc12 [Compound 9d, (R)-2-((2-amino-5-((2-fluorobenzyl)thio)thiazolo[4,5-d]pyrimidin-7-yl)amino)-4-methylpentan-1-ol]",selectivity over CXCR2,CXCR2; CX3CR1 over CXCR2,18 fold
"CC(C)C[C@H](CO)Nc1nc(SCc2ccc(Br)cc2F)nc2nc(N)sc12 [Compound 9f, (R)-2-((2-amino-5-((4-bromo-2-fluorobenzyl)thio)thiazolo[4,5-d]pyrimidin-7-yl)amino)-4-methylpentan-1-ol]",Ki,CXCR2,1400 nM
